Laboratory results taken from ChEMBL document CHEMBL1201862, “PubChem BioAssay data set” (2004).
Activity calls are given as the source filed them.

Experiments:
[1] = insulin promoter down-regulators in MIN6 cells, imaging, high-content screening, mouse beta cells (AID 1628); type: functional
[2] = cytotoxicity in MIN6 insulinoma cells, dose response, cytotoxicity control, cell-based, mouse insulinoma (AID 2122); type: functional;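 further: confirmatory high-throughput counterscreen run to flag cytotoxic compounds; mouse MIN-6 beta cells carrying an insulin promoter eGFP reporter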
Cytochrome P450 2C9 = Cytochrome P450 2C9 (Homo sapiens, UniProt P11712)
HEK293 [3] = test: NOD1 signaling inhibitors, primary screen, cell-based, luminescence, uHTS (AID 1578); type: functional; details: Homo sapiens
HEK293 [4] = test: cells; type: functional, cell-based; details: Homo sapiens
HEK293 [5] = test: cells; type: functional, cell-based; details: Homo sapiens; remark: listed apart in the source
[6] = target: Nucleotide-binding oligomerization domain-containing protein 2 (Homo sapiens, UniProt Q9HC29); test: NOD2 signaling inhibitors, cell-based, luminescence, uHTS, HEK293 (AID 1566); type: functional
HEK293 [7] = test: NOD2 signaling inhibitors in MDP-stimulated cells, cell-based, uHTS, luminescence (AID 2001); type: functional; details: Homo sapiens
HEK293 [8] = test: cells; type: functional, cell-based; details: Homo sapiens; remark: listed apart in the source
[9] = target: T1, Carboxy-terminal domain RNA polymerase II polypeptide A small phosphatase 1 (Homo sapiens, UniProt Q9GZU7); test: inhibitors of CTDSP1, concentration-response testing, biochemical assay, absorbance-based, actives from ultra-high-throughput screening (AID 540297); type: functional
T1 sequence (Q9GZU7 whole entry): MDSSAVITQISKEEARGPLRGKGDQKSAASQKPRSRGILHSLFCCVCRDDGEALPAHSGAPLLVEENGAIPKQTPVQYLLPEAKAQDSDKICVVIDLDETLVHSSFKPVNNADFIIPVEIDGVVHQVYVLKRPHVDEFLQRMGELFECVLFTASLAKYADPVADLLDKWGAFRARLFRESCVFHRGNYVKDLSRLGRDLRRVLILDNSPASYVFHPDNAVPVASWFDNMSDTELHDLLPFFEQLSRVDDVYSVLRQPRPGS

[10] = inhibitors of firefly luciferase expression or activity, dose response, H4 neuroglioma cells, luminescence (AID 1990); type: functional, cell-based
BJ [11] = test: cytotoxicity toward BJ-TERT fibroblasts, dose response, cell-based, RAS-independent, luminescence (AID 1933); type: functional; details: Homo sapiens
[12] = Luminescence Cell-Based Dose Response HTS to Identify Inhibitors of 5'UTR Stem-Loop Driven Prion Protein mRNA Translation in H4 Neuroglioblastoma Cells. [Related pubchem assays: 1827 (Project Summary), 1813 (Primary HTS)]; type: functional
[13] = inhibitors of SNCA 5'UTR-driven reporter translation, confirmation, H4 neuroglioma cells, luminescence (AID 1988); type: functional, cell-based
BJ [14] = test: cells; type: functional, cell-based; details: Homo sapiens
[15] = cytotoxicity toward DRD oncogenic fibroblasts, dose response, cell-based, non-viral oncogenic, luminescence (AID 1934); type: functional; details: Homo sapiens
Cytochrome P450 3A4 = Cytochrome P450 3A4 (Homo sapiens, UniProt P08684);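 further: CYP3A4 tested as one member of a cytochrome P450 panel screen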
[16] = target: Glyceraldehyde-3-phosphate dehydrogenase (Homo sapiens, UniProt P04406)
[17] = target: T2, Alkaline phosphatase, tissue-nonspecific isozyme (Homo sapiens, UniProt P05186); test: human TNAP enzyme inhibitors, SAR follow-up, biochemical, luminescent, dose response (AID 1056)
T2 sequence (P05186 whole entry): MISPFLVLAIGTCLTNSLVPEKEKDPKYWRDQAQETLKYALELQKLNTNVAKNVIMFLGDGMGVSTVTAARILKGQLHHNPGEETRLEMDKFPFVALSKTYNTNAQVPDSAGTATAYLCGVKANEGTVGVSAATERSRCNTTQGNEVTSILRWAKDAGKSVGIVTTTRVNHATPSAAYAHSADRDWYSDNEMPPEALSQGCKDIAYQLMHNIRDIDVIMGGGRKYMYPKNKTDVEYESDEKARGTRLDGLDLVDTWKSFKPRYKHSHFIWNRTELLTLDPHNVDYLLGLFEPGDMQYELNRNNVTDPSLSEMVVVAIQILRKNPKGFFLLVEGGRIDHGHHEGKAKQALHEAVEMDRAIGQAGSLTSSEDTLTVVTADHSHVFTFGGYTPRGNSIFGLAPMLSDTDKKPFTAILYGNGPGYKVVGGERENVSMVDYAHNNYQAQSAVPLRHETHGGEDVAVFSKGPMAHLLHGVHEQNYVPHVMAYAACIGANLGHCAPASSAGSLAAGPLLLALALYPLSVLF

HEK293 [18] = test: cells; details: Homo sapiens
HEK293 [19] = test: cells; details: Homo sapiens; remark: listed apart in the source
[20] = target: Glucose-6-phosphate 1-dehydrogenase (Homo sapiens, UniProt P11413); test: human G6PD enzyme inhibitors, dose response, selectivity assay for P. falciparum G6PD inhibitor project, biochemical, fluorescence (AID 504792); type: functional
Cytochrome P450 2C19 = Cytochrome P450 2C19 (Homo sapiens, UniProt P33261); test: Cytochrome panel assay with activity outcomes. Panel member name: p450-cyp2c19 Compounds with AC50 equal or less than 10 uM are considered active; type: functional; details: read-out: AC50
Cytochrome P450 1A2 = target: T3, Cytochrome P450 1A2 (Homo sapiens, UniProt P05177);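 further: PubChem cytochrome P450 panel assay, CYP1A2 panel member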
T3 sequence (P05177 whole entry): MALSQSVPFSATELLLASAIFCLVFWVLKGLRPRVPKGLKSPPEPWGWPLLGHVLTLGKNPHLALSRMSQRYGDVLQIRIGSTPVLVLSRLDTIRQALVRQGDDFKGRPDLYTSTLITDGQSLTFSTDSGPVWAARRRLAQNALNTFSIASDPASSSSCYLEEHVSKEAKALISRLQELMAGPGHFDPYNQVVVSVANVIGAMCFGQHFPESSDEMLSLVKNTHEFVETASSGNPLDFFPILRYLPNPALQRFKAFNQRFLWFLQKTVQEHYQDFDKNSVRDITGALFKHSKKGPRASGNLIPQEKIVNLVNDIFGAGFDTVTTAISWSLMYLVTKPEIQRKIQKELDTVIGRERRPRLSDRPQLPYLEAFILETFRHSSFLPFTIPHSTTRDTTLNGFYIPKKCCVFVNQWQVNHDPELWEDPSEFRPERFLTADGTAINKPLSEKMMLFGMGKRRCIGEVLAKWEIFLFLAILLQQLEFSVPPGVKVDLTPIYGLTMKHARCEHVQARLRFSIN

Troponin, cardiac muscle = Troponin, cardiac muscle (Homo sapiens, UniProt P19429+P45379+P63316); test: Fluorescence-based biochemical high throughput dose response assay for activators of the calcium sensitivity of cardiac Regulated Thin Filaments (RTF). [Related pubchem assays (depositor defined):AID493008, AID493018, AID504382, AID504383]; type: protein-complex assay

SMILES: c1ccc2c3nc[nH]c(N4CCCC4)c-3nc2c1
- IC50 [1]: 3.72 µM (active)
- IC50 [2]: 3.1 µM (active)

SMILES: CC1CCCC(C)N1C(=O)c1cc(-c2ccc(Cl)c(Cl)c2)on1 (stereo not drawn)
- AC50 (Cytochrome P450 2C9): inconclusive

SMILES: Cc1cc(C(=O)Nc2ccccc2C(=O)O)ccc1NC(=O)COc1ccccc1Cl
- EC50 (HEK293 [3]): > 20 µM (inactive)
- IC50 (HEK293 [4]): > 20 µM (inactive)
- IC50 (HEK293 [5]): > 20 µM (inactive)
- EC50 [6]: 5.38 µM (active)
- IC50 (HEK293 [7]): > 20 µM (inactive)
- IC50 (HEK293 [8]): > 20 µM (inactive)
- IC50 [9]: 6.31 µM (active)

SMILES: O=C1C=C(c2ccccc2)C[C@H](c2cccs2)[C@H]1n1nnc([N+](=O)[O-])n1
- EC50 [10]: 6.52 µM (active)
- EC50 (HEK293 [3]): 9.57 µM (active)
- EC50 (BJ [11]): 0.681 µM (active)
- IC50 (HEK293 [4]): > 20 µM (inactive)
- EC50 [12]: 17.5 µM (active)
- EC50 [13]: 9.23 µM (active)
- EC50 (BJ [14]): 1.11 µM (active)
- IC50 (HEK293 [5]): > 20 µM (inactive)
- EC50 [6]: 11 µM (active)
- IC50 (HEK293 [7]): 9.37 µM (active)
- IC50 (HEK293 [8]): > 20 µM (inactive)
- EC50 [15]: 0.668 µM (active)

SMILES: Cn1c(=O)c(-c2cccc(C#N)c2)nc2cnc(Oc3ccccc3)nc21
- AC50 (Cytochrome P450 3A4): inconclusive

SMILES: O=S(=O)(Nc1cccnc1)c1ccccc1OC(F)(F)F
- IC50 [16]: > 100 µM (not active)
- IC50 [17]: > 100 µM (inactive)

SMILES: CCCC(C)Sc1nc2c(=S)n(C)c(=O)n(C)c2[nH]1 (stereo not drawn)
- EC50 (HEK293 [18]): > 59.7 µM (inactive)
- EC50 (HEK293 [19]): > 59.7 µM (inactive)

SMILES: O=C1C=CC(=O)N1c1ccc(-c2nc3ccccc3o2)cc1
- IC50 [20]: > 80 µM (inactive)

SMILES: COc1ccc(NC(=O)c2ccc(-n3cccn3)nc2)c(OC)c1
- AC50 (Cytochrome P450 2C19): 14.1 µM (inconclusive)
- AC50 (Cytochrome P450 1A2): 2.82 µM (inconclusive)
- AC50 (Cytochrome P450 2C9): inconclusive

SMILES: Oc1[nH]nc(C(F)(F)F)c1/C=N/Cc1ccccc1Cl
- EC50 (Troponin, cardiac muscle): > 71.4 µM (inactive)

SMILES: COc1ccc2c(c1[N+](=O)[O-])CCC/C2=N/OC(=O)c1cccc2ccccc12
- AC50 (Cytochrome P450 2C9): inconclusive
